Measurements reported in article PMC8703450, “New Heterocyclic Combretastatin A-4 Analogs: Synthesis and Biological Activity of Styryl-2(3H)-benzothiazolones” (Pharmaceuticals, 2021).
Like-named read-outs stand apart in the source and are kept apart here.

Legend:
EA.hy926 cells [1] = assay: MTT cytotoxicity / growth inhibition assay, EA.hy926; assay type: cell-based, human; settings: Homo sapiens; for IC50: EA.hy 926, 72 h of treatment
Experimental: The endothelial cell line (EA.hy926) was kindly provided by Dr. C-J.S. Edgell—University of North Carolina, USA. Cells were cultured in 4.5 g/L D-Glucose DMEM/F12 medium, supplemented with 10% fetal bovine serum (FBS, Cytogen GmBH, Greven, Germany) and 100 U/mL penicillin and streptomycin (Lonza BioWhitaker, Verviers, Belgium). The other cell lines used are described in Table S3.1. Cell cultures were maintained in an incubator at 37 °C with 95% humidity and 5% CO2 and were routinely found free of mycoplasma.
(§1) All tested compounds were dissolved in DMSO at 25 mM initial concentration and diluted with medium to obtain the working concentrations (0.01 nM–250 µM). Serial drug dilutions were prepared in medium immediately before each experiment. The DMSO working concentration in the medium was […]. For the MTT assay, cells were seeded into 96-well microtitre plates at a density of 1 × 10^4 in 100 µL complete medium per well. They were further incubated for 24 h, followed by treatment with CA-4 analogs up to 72 h. Cell viability was determined using the MTT assay. Ten µL of MTT solution (5 mg/mL) was added to each well and further incubated for 3 h at 37 °C. To dissolve the formazan product, 100 µL/well of 99.5% isopropanol was added. Cell viability was determined by measuring absorbance at 550/630 nm using a DTX880 plate reader (Beckman Coulter, USA). Results, expressed as concentrations that inhibit 20% (IC20), 50% (IC50), and 80% (IC80) of cell growth, were calculated using GraphPad Prism 8.0.1.

[2] = system: colchicine binding site of β-tubulin; assay: Colchicine-binding site assay (EBI competition) in EA.hy926 cells; assay type: cell-based, human; settings: then 100 µM EBI 2 h, Western blot
Experimental: N,N′-ethylene-bis(iodoacetamide) (abcam, ab144980) was dissolved in DMSO to a final concentration of 50 mM. EA.hy926 cells were seeded at density of 1 × 10^5 cells/mL and incubated overnight. […] Cells were lysed with Laemmli buffer and subjected to Western blot analysis for β-tubulin [66, 67]. The detailed Western blot method is as shown above.

EA.hy926 cells [3] = assay: Matrigel tube disruption assay; assay type: cell-based, human; settings: EA.hy926 on Matrigel, 24 h of treatment
Experimental: The tube formation assay was performed in 96-well plates coated with 40 µL BD Matrigel™ (basement membrane matrix), following the manufacturer’s instruction (BD Biosciences). A total of 2 × 10^4 EA.hy926 cells was re-suspended in growth medium and added to each well in a final volume of 100 µL. Tube formation was visualized directly using a light microscope. Images were captured using a phase-contrast microscope and quantitation was performed using the WimTube application of the Wimasis online image analysis platform (https://www.wimasis.com/en/products/13/WimTube; accessed on 1 June 2021).

α,β-tubulin = assay: In vitro quantification of polymeric vs. soluble tubulin fractions in EA.hy926 cells; assay type: cell-based, human; settings: for soluble vs. polymerized tubulin ratio: EA.hy926, 1 µM, 6 h, DMSO control 2.33 ± 0.14
Experimental: To assess the early effects on the microtubule cytoskeleton in vitro, EA.hy926 cells were cultured for 24 h in 6-cm dishes (3 × 10^5 cells). They were exposed to […] (control), 1 μM CA-4, paclitaxel, or increasing concentrations of 26Z (50, 100, 250, 2500, 10,000 nM) for 6 h. Cells were washed with PBS and lysed directly in the dishes with hypotonic lysis buffer (20 mM Tris-HCl, 1 mM MgCl2, 2 mM EGTA, 0.5% Triton X-100, glycerol 10%, pH 6.8), supplemented with protease inhibitors (2 μg/mL leupeptin, 2 μg/mL pepstatin, 0.4 mM Na vanadate, 0.5 mM PMSF, 1 mM DTT), for 3 min at 30 °C. The soluble fraction was immediately collected, mixed with 5× sample buffer, and boiled at 95 °C for 5 min. The polymerized fraction was collected directly from the culture dish following 10 min of incubation at room temperature with 1× sample buffer.
For the concentration-dependent assay, the cells were harvested by scraping and centrifuged at 1000 g for 5 min, and then lysed with the hypotonic cell lysis buffer for 10 min at room temperature. Tubulin fractions were obtained by centrifugation at 12,000 × g for 10 min.
Equal volumes of the samples were subjected to 10% SDS-PAGE followed by western blotting. Detection of β-tubulin content was accomplished with an anti-β-tubulin mouse monoclonal antibody (sc-101527, Santa Cruz Biotechnology).

MCF-7 cells = assay: MTT cytotoxicity assay, MCF-7; assay type: cell-based, human
Experimental: as §1
(§2) Table S 3.1. Description of eukaryotic cell lines used for MTT assay. […]
Kindly provided 3.1 g/L Glucose,
mammary by Prof. Iana DMEM/F12 with
Breast MDA- gland/breast; derived Tsoneva 10% FBS, 100 U/mL
MB-231 h from metastatic site: (IBPhBME – penicillin, 100 U/mL
pleural effusion; BAS) streptomycin (Lonza). […]

EA.hy926 cells [4] = assay: Clonogenic survival assay; assay type: cell-based, human; settings: 72 h treatment + 6 days recovery
Experimental: EA.hy926 cells were seeded at 300 cells/well on a 6-well plate and incubated for 24 h. The cells were treated with different concentrations of test compounds for 72 h. After six additional days of growth in a fresh medium to form visible colonies, cells were washed with phosphate-buffered saline (PBS, pH 7.4) and stained with crystal violet (0.5%, w/v) in 6% glutaraldehyde. After 30 min of incubation, the plates were washed with tap water, dried, photographed, and analyzed using ImageJ [79]. Raw data were normalized to the corresponding DMSO control for each independent experiment. After normalization, statistically significant differences for colony-forming efficiency (CFE) values versus […] were calculated.

[5] = MTT cytotoxicity assay, BEAS-2B control cells; assay type: cell-based; settings: human, read-out: Cytostatic activity (% viable cells)
Experimental: as §1
Table S 3.1. Description of eukaryotic cell lines used for MTT assay.
Panel Cell line Origin Tissue, characteristics Source Culture conditions
(h) lung carcinoma ATCC, CCL-185 U/mL penicillin, 100
lung, bronchus; insulin, rhEGF, GA-
BEAS-2B h epithelial virus ATCC, CRL- 1000, BPE,

HT-29 cells = assay: MTT cytotoxicity assay, HT-29; assay type: cell-based, human; settings: for IC50: Homo sapiens
Experimental: as §1, §2
HT-29 h colon, colorectal Radostina adenocarcinoma Alexandrova 3.1 g/L D-Glucose […]
colon, colon Kindly provided U/mL streptomycin

SMILES	IC50 (EA.hy926 cells [1])	tubulin EBI-adduct formation ([2]; EA.hy926, 10 μM compound 2 h)	decrease of branching points (EA.hy926 cells [3]; equitoxic IC50 concentration)	reduction of loop numbers (EA.hy926 cells [3]; equitoxic IC50 concentration)	soluble vs. polymerized tubulin ratio (α,β-tubulin)	Cytostatic activity (% viable cells) (MCF-7 cells; MCF-7 cells, 72 h, MTT, in the concentration range studied)	inhibition at 0.001 µM (EA.hy926 cells [4]; Homo sapiens, EA.hy 926, EA.hy926, 1 nM, read-out: inhibition of endothelial cell colony formation)	viability at 72 h ([5]; BEAS-2B cells)	IC50 (HT-29 cells; HT-29 cells, 72 h, MTT, read-out: IC50)	IC20 (EA.hy926 cells [1]; EA.hy 926, concentration that inhibits 20% of cell growth)	IC80 (EA.hy926 cells [1]; EA.hy 926, concentration that inhibits 80% of cell growth)	tubulin EBI-adduct formation ([2]; EA.hy926, 25 µM compound 2 h)	reduction in cumulative tube length (EA.hy926 cells [3]; IC50 concentration, compared with time 0)	concentration above which the depolymerizing effect is clearly visible (α,β-tubulin; EA.hy926, 6 h, 0.01–10 μM)	IC50 (MCF-7 cells; Homo sapiens, MCF7, 72 h)	decrease in colony number (EA.hy926 cells [4]; EA.hy926, 250 nM)	reduction in colony formation (EA.hy926 cells [4]; EA.hy926, 2.5, 10 and 25 µM)	viability at 72 h [5]	greater cytotoxic effect compared to CA-4 (HT-29 cells; HT-29 cells, 72 h)	IC50 (HT-29 cells; HT-29, 72 h)
COc1ccc(/C=C\c2cc(OC)c(OC)c(OC)c2)cc1O [CA-4, Combretastatin A-4]	3.3 ± 0.2 nM	inhibited	50%	56 ± 3%	3.3 ± 0.61	40%	80%	80%	2160 ± 230 nM											
COc1cc(/C=C\c2ccc3c(c2)sc(=O)n3C)cc(OC)c1OC [Compound 26Z, (Z)-3-methyl-6-(3,4,5-trimethoxystyryl)-2(3H)-benzothiazolone]	130 ± 10 nM		63%		2.74 ± 0.43					40 ± 10 nM	300 ± 40 nM	inhibited	~ 70%	higher than 0.05 μM	2420 ± 480 nM	90%	about 100%	80%	more than 250 times	8 ± 1 nM
